Experiments:
Male Sprague-Dawley rats = experiment: Reinstatement of morphine-induced conditioned place preference; settings: priming dose 1.8 mg/Kg, 20 min, vs baseline
Experimental: Male Sprague-Dawley rats were exposed to a conditioned place preference (CPP) apparatus for two sessions to determine baseline (BL) preference for 2 distinct, unbiased chambers. […] The animals then underwent extinction procedures consisting of confinement for 45 min in the previously drug- and vehicle-paired chambers for 7 days.

Male Sprague Dawley rats = experiment: Locomotor sensitization during CPP conditioning sessions; assay type: in vivo, rat; settings: 1.8, 3.2, 5.6 mg/Kg i.v., 5 daily injections, compared to vehicle
Experimental: Conditioned Place Preference (CPP) and locomotor activity: Standard CPP chambers (TSE; Chesterfield, Mo.) were used to measure baseline activity and conditioning trials. Baseline activity was measured over 2 days with 4 trials per day (2 in the AM, and 2 in the PM) lasting 20 min each. […] Conditioning trials were conducted for 5 days and tested in an unbiased manner such that drug/environment pairings were counterbalanced for time of drug injection (AM or PM) and compartment (preferred or non-preferred) based on baseline activity. […] This indicates a lack of carry-over effects of drug between sessions. One day following the last conditioning trial, a 20 min test trial was conducted in the same manner as baseline trials in which rats were free to explore both compartments. Change in time spent exploring the drug-paired compartment (test-baseline) was used to indicate preference (or aversion) to the compartment. Approximately 20 min following the final session, rats were perfused and brain samples were taken for immunohistochemical analysis (below). Locomotor activity was assessed by infrared light beams located in the conditioning compartments and the start box. […] Data were recorded in meters and an assessment of locomotor sensitization was made by subtracting the first session from the final session.
Experimenters were blinded to treatment groups.

[1] = tested on: dopamine (DA) neurons in the posterior VTA; experiment: VTA dopamine cell soma morphology (TH staining, STEREO INVESTIGATOR); assay type: in vivo, rat; settings: 5 consecutive daily i.v. injections; morphine effect at 5.6 mg/Kg
Experimental: DA morphology analysis: Fifteen min following the final CPP test session, rats were anesthetized with a mixture of ketamine/xylazine (85/10 mg/Kg, i.p., respectively) and perfused intracardially with 200 mL of 0.1 mol/L phosphate buffered saline (PBS) immediately followed by 300 mL of 4% paraformaldehyde in 0.1 mol/L PBS (pH=7.4). Brains were removed and post-fixed at 4° C. in the same fixative for 18 h. After post-fixation, brains were incubated in 30% sucrose at 4° C. for 2 days and sectioned coronally on a cryostat at 40 μm at the level of the posterior VTA (Spiga et al., 2003; Chu et al., 2008). After 2 consecutive washes in PBS, sections were blocked with 5% normal donkey serum (NDS) for 1 h, and incubated with the primary antibody anti-tyrosine-hydroxylase (anti-TH, 1: 3000 Cell Signaling Technology, Danvers, Mass.) overnight at 4° C. Slices were washed twice in PBS, re-blocked for 1 h, and incubated with the secondary antibody ALEXA594 (Life Technologies, Carlsbad, Calif.), for 2 h. Sections were washed, mounted on slides with PROLONG GOLD (Life Technologies), and stored at 4° C. Posterior VTA sections were verified according to the atlas of Paxinos and Watson (2007). Images of the parabrachial pigmented area (PBP) and the paranigral area (PN) subregions of the posterior VTA were captured in z-stacks (1 μm) with at least 5 tissue slices per rat and 5-6 rats per drug group. STEREO INVESTIGATOR software (MBF Bioscience; Williston, Va.) was used to quantify soma size using the optical fractionator probe to survey a sample of neurons in each z-stack while the nucleator probe was used to measure the cross-sectional area and volume of each cell soma. The optical fractionator probe was used to quantify the number of cells in a particular section of tissue through systematic random sampling. Between 12 and 16 regions were surveyed per z-stack. While the optical fractionator probe utilized stereological techniques to select a random sample to be analyzed, the nucleator probe measured the cross-sectional area of each neuron. Therefore, the simultaneous use of these probes systematically assessed neurons in the PBP and PN regions of the VTA in each subject, and provided morphological data for these cells including surface area (μm^2) and volume (μm^3). Cell somas were eligible to be quantified if they were located within the counting frame and/or if the soma touched either of the nucleator frame's green borders. Neurons were ineligible if located outside the counting frame and/or if their soma touched the frame's red borders. After determining this optimum depth, the center of the soma was located and analyzed by the nucleator probe. To eliminate bias associated with tissue orientation, nucleator rays were randomly arranged between quantifications. […]

male and female rats = experiment: Naloxone-induced conditioned place aversion (CPA); assay type: in vivo, rat; settings: i.v. morphine 5.6 mg/Kg or ZH853 4.2 mg/Kg, naloxone 1 mg/Kg s.c. 4 h later
Experimental: Four hours later they received s.c. naloxone (1 mg/Kg) and were confined to one side of the apparatus (counterbalanced) for 20 min. The following day the animals received vehicle-then-saline rather than drug-then-naloxone. This cycle (drug+4 h+nlx+next day vehicle+saline) was repeated once, and the next day the animals had access to the entire apparatus (Post-cond).
To assess whether ZH853 induces the negative affect typical of opioid withdrawal, the conditioned place aversion (CPA) test was conducted.

## NC(=O)CNC(=O)[C@@H]1CCC(=O)NCCCC[C@@H](NC(=O)[C@@H](N)Cc2ccc(O)cc2)C(=O)N[C@@H](Cc2c[nH]c3ccccc23)C(=O)N[C@@H](Cc2ccccc2)C(=O)N1 [ZH853, Tyr-c[D-Lys-Trp-Phe-Glu]-Gly-NH2]
Male Sprague-Dawley rats
  reinstatement of morphine CPP after extinction: scores not significantly different from baseline
Male Sprague Dawley rats
  locomotor sensitization (LS), day 5 minus day 1: did not produce LS at any dose tested
[1]
  surface area of TH-positive somas in pVTA: did not alter
  volume of TH-positive somas in pVTA: did not alter
Male and female rats
  naloxone-induced place aversion: did not produce a place aversion
